# Results from patent US20100184673A1, “USE OF PARATHYROID HORMONE ( 1-34 ) AS ANTI-HIV AGENT” (priority 2007, published 2010).
# Tests used:
# HepG2-2.2.15 cells = assay: Cell viability of HepG2-2.2.15 cells (dye uptake assay); assay type: cell-based; details: peptide 10 micrograms per ml
# Experimental: (§1) HepG2-2.2.15 cells were plated in 96-well microtiter plates. After 16-24 hours the confluent monolayer of HepG2-2.2.15 cells was washed and the medium was replaced with complete medium containing test peptide—10 micrograms per ml—in duplicate. Lamivudine (3TC) was used as the positive control, while media alone was added to the cells as a negative control (virus control). Three days later the culture medium was replaced with fresh medium containing the peptide. Six days following the initial administration of the peptide, the cell culture supernatants was collected, treated with pronase and DNAse and then used in a real-time quantitative TaqMan PCR assay. The PCR-amplified HBV DNA was detected in real-time by monitoring increases in fluorescence signals that result from the exonucleolytic degradation of a quenched fluorescence probe molecule that hybridizes to the mplified HBV DNA. For each PCR amplification, a standard curve was simultaneously generated using dilutions of purified HBV DNA. Antiviral activity was calculated from the reduction in HBV DNA levels (% virus control). A novel dye uptake assay was then employed to measure cell viability, which is used to calculate toxicity (% cell control).
# HIV-1IIIB = assay: HIV-1 antiviral assay (CPE reduction) in CEM-SS cells, MTS readout; details: for antiviral activity of positive control compounds (in words): assay validity statement; for % CPE reduction in HIV-1 infected CEM-SS cells: peptide 10 micrograms per ml, 6 days post-infection, MTS
# HCMV strain AD169 = assay: HCMV plaque reduction assay in MRC-5 cells; details: for % plaque reduction: HCMV in MRC-5 cells, peptide 10 micrograms per ml, 7-10 days
# MRC-5 cells = assay: in vitro; assay type: cell-based; details: human, 6 days
# [1] = tested on: hepatitis B virus (HBV) ayw strain; assay: HBV replication assay in HepG2-2.2.15 cells (TaqMan PCR of secreted HBV DNA); assay type: cell-based; details: peptide 10 micrograms per ml; six days; HBV DNA in supernatant
# Description: HepG2-2.2.15 is a stable cell line containing the hepatitis B virus (HBV) ayw strain genome (ATCC Cat. No. CRL-11997). Antiviral compounds blocking any late step of viral replication such as transcription, translation, pregenome encapsidation, reverse transcription, particle assembly and release can be identified and characterized using this cell line. In this assay, an active compound will reduce the production of secreted HBV from cells, measured by utilizing real time quantitative PCR (TaqMan) assay to directly and accurately measure HBV DNA copies.
# HepG2-2.2.15 cells were plated in 96-well microtiter plates. After 16-24 hours the confluent monolayer of HepG2-2.2.15 cells was washed and the medium was replaced with complete medium containing test peptide—10 micrograms per ml—in duplicate. […] Six days following the initial administration of the peptide, the cell culture supernatants was collected, treated with pronase and DNAse and then used in a real-time quantitative TaqMan PCR assay. The PCR-amplified HBV DNA was detected in real-time by monitoring increases in fluorescence signals that result from the exonucleolytic degradation of a quenched fluorescence probe molecule that hybridizes to the mplified HBV DNA. […] Antiviral activity was calculated from the reduction in HBV DNA levels (% virus control). […]
# [2] = tested on: Primary Human endothelial cells (HUVEC); assay: Endothelial cell migration assay; assay type: cell-based; details: peptide 10 micrograms per ml, 22 hours
# in vitro [3] = assay type: cell-based; details: human, MRC-5 cells
# [4] = Cell viability of HepG2-2.2.15 cells (dye uptake assay); assay type: cell-based; details: human, peptide 10 micrograms per ml
# Experimental: as §1
# A549 cells [5] = assay: Apoptosis induction assay (Annexin-5); assay type: cell-based, Human; details: 24 hours, peptide 10 micrograms per ml
# Description: Human A549 cells (carcinomic human alveolar basal epithelial cells) were utilized in the experiments employing the Annexin-5 apoptosis assay. Annexin-5 is a member of a highly conserved protein family that binds acidic phospholipids in a calcium-dependent manner. […] Phosphatidylserine is translocated from the inner side of the plasma membrane to the outer layer when cells undergo death by apoptosis or cell necrosis and serves as a signal by which cell destined for death are recognized by phagocytes. Test peptide—10 micrograms per ml—were exposed for 24 hours to the A549 cells before they were analyzed for signs of apoptosis.
# A549 cells [6] = assay: Apoptosis prevention assay (C2 ceramide, Annexin-5); assay type: cell-based, Human; details: 30 min pretreatment, peptide 10 micrograms per ml
# Description: Human A549 cells (carcinomic human alveolar basal epithelial cells) were utilized in the experiments employing the Annexin-5 apoptosis assay. Annexin-5 is a member of a highly conserved protein family that binds acidic phospholipids in a calcium-dependent manner. […] Phosphatidylserine is translocated from the inner side of the plasma membrane to the outer layer when cells undergo death by apoptosis or cell necrosis and serves as a signal by which cell destined for death are recognized by phagocytes. A549 cells were pretreated for 30 min with test peptide—10 micrograms per ml—followed by the exposure to C2 ceramide. Ceramide mediates cell apoptosis through the activation of the mitogen activating protein kinase (MAPK) and the stress activated kinase (JNK/SAPK). C2 ceramide is a synthetic, membrane soluble analog of ceramide.
# [7] = tested on: Human Peripheral Blood Mononuclear Cells (PBMC); assay: T cell proliferation assay (PHA, 3H-thymidine); assay type: cell-based; details: peptide 10 micrograms per ml
# Experimental: (§2) Human Peripheral Blood Mononuclear Cells (PBMC) were obtained from normal human donors. The T cell proliferation was induced by stimulation of the cells with the T cell mitogen phytohemagglutinin (PHA), either in the absence (positive proliferation control), or in the presence of test peptide—10 micrograms per ml—to examine their effects on the T cell proliferating response. 10^5/well PBMC were plated in 96-well microtiter plates and assayed in duplicate with the peptide. Cell cultures were incubated at 37° C. for 3 days in a 5% CO2 incubator and were thereafter pulsed with 1microCi/well ^3H-thymidine for additional 12 hours of culture. At the end of incubation time, the plates were harvested and the cells counted by liquid scintillation for the incorporation of ^3H-thymidine as a measure of T cell proliferation.
# HUVEC = assay: Endothelial tube formation assay; assay type: cell-based, Human; details: peptide 10 micrograms per ml, 20 hours
# Description: […] control wes vehicle only. […] Raw data were expressed as average tubule lenghs in pixels±standard deviation.
# A549 cells [8] = assay: Propidium iodide cell cycle assay; assay type: cell-based, Human; details: 24 hours, peptide 10 micrograms per ml, FACS
# Description: Human A549 cells (carcinomic human alveolar basal epithelial cells) were utilized in the experiments employing the Propidium iodide cell cycle assay. The eukaryotic cell cycle is a series of events that take place in a cell leading to its replication. The regulation of the cell cycle involves steps crucial to the cell, including detecting and repairing genetic damage, and provision of various checks to prevent uncontrolled cell division. The molecular events that control the cell cycle are ordered and directional; that is, each process occurs in a sequential fashion.
# Propidium iodide is an intercalating agent and a fluorescent molecule that can be used to stain DNA. Cells were incubated for 24 hours with test peptide—10 micrograms per ml—or left untreated. After that cells were trypsinized, suspended in medium+10% FCS, centrifuged (1000 rpm, 5 min), and the cell pellet resuspended in PBS (1 ml). The cells were pipetted into 2.5 ml absolute EtOH (final concentration approx. 70%) and incubated on ice for 15 min. Thereafter, cells were pelleted at 1500 rpm for 5 min and resuspended in Propidium iodide solution in PBS. After incubation for 40 min at 37° C., cells were analyzed in the FACS.
# Streptococcus pneumoniae = assay type: cell-based; details: 5 micrograms per ml
# spleen cells = assay: Th1/Th2 cytokine profiling assay (Ovalbumin restimulated spleen cells, CBA kit); assay type: cell-based, Balb/c mice; details: peptide 10 micrograms per ml; Ovalbumin restimulation; 72 hours
# Description: The Balb/c mice (originated in 1923, it is a popular strain and is used in many different research disciplines. Also classified as an inbred from the production of 20 or more successive brother-sister matings, the Balb/c mouse is albino and small in size) were immunized on Days 1, 15, and 29 with Ovalbumin (Ovalbumin is the main protein found in egg white, commonly used to stimulate an immunological reaction in test animals) in PBS (5 micrograms/injection). On day 50, spleens of the mice were harvested (3 weeks after last boost with Ovalbumin). […] Thereafter, additional Ovalbumin was added to the cells at 10 micrograms/ml for in vitro restimulation of the cells. 72 hours later, cell supernatants were harvested and assayed using the Becton Dickinson Mouse Th1/Th2 Cytokine CBA Kit. This kit can be used to measure Interleukin-2 (IL-2), Interleukin-4 (IL-4), Interleukin-5 (IL-5), Interferon-γ (IFN-γ), and Tumor Necrosis Factor-α (TNF-α) protein levels in a single sample. The kit performance has been optimized for analysis of physiologically relevant concentrations (pg/ml levels) of specific cytokine proteins in tissue culture supernatants and serum samples.
# MRSA = details: 5 micrograms per ml
# [9] = tested on: Human Peripheral Blood Mononuclear Cells (PBMC); assay: B cell proliferation assay (SAC plus Interleukin-2, 3H-thymidine); assay type: cell-based; details: peptide 10 micrograms per ml
# Experimental: as §2, with “The B” for “The T”, “the B” for “the T”, “mitogen Staphylococcus aureus Cowans I (SAC) plus Interleukin-2,” for “mitogen phytohemagglutinin (PHA),”, “cell” for “cell proliferating”, “of B” for “of T”
# Pseudomonas aeruginosa = assay type: cell-based; details: 5 micrograms per ml
# RAW 264.7 cells = assay: Phagocytosis assay (Fluorescein-labeled Escherichia coli); details: peptide 10 micrograms per ml, flow cytometry
# [10] = tested on: macrophages prepared from PBMC; assay: TNF alpha production assay (LPS-stimulated macrophages, ELISA); assay type: cell-based, Human; details: peptide 10 micrograms per ml, lipopolysaccharide 200 ng/ml, overnight
# Experimental: Human Peripheral Blood Mononuclear Cells (PBMC) were obtained from normal human donors. The macrophages were prepared by adherence of PBMC to the plastic wells of the plates. […] Not stimulated macrophages served as negative background control.
# After overnight incubation, supernatants from the control and LPS-stimulated cultures were harvested and assayed for TNF alpha production employing a TNF alpha specific ELISA.
# in vitro [11] = details: human, CEM-SS cells
smiles,measurement,setting,value
"Nc1ccn([C@@H]2CS[C@H](CO)O2)c(=O)n1 [3TC, Lamivudine, reference compound]",% Cell viability,HepG2-2.2.15 cells,95.8%
"Cc1cn([C@H]2C[C@H](N=[N+]=[N-])[C@@H](CO)O2)c(=O)[nH]c1=O [AZT, zidovudine]",antiviral activity of positive control compounds (in words),HIV-1IIIB,expected levels of antiviral activity
same,% CPE reduction in HIV-1 infected CEM-SS cells,HIV-1IIIB,99%
Nc1nc(O)c2ncn(COC(CO)CO)c2n1 [Ganciclovir],% plaque reduction,HCMV strain AD169,100%
same,antiviral activity of positive control compound (in words),HCMV strain AD169; assay validity statement,expected levels of antiviral activity
same,% Cell viability,MRC-5 cells,100%
"CC(C)(C)NC(=O)[C@@H]1CN(Cc2cccnc2)CCN1C[C@@H](O)C[C@@H](Cc1ccccc1)C(=O)N[C@H]1c2ccccc2C[C@H]1O [Indinavir, indinavir]",antiviral activity of positive control compounds (in words),HIV-1IIIB,expected levels of antiviral activity
same,% CPE reduction in HIV-1 infected CEM-SS cells,HIV-1IIIB,100%
CC[C@H](C)[C@H](NC(=O)[C@H](CCC(=O)O)NC(=O)[C@H](CO)NC(=O)[C@@H](NC(=O)[C@@H](N)CO)C(C)C)C(=O)N[C@@H](CCC(N)=O)C(=O)N[C@@H](CC(C)C)C(=O)N[C@@H](CCSC)C(=O)N[C@@H](Cc1cnc[nH]1)C(=O)N[C@@H](CC(N)=O)C(=O)N[C@@H](CC(C)C)C(=O)NCC(=O)N[C@@H](CCCCN)C(=O)N[C@@H](Cc1cnc[nH]1)C(=O)N[C@@H](CC(C)C)C(=O)N[C@@H](CC(N)=O)C(=O)N[C@@H](CO)C(=O)N[C@@H](CCSC)C(=O)N[C@@H](CCC(=O)O)C(=O)N[C@@H](CCCN=C(N)N)C(=O)N[C@H](C(=O)N[C@@H](CCC(=O)O)C(=O)N[C@@H](Cc1c[nH]c2ccccc12)C(=O)N[C@@H](CC(C)C)C(=O)N[C@@H](CCCN=C(N)N)C(=O)N[C@@H](CCCCN)C(=O)N[C@@H](CCCCN)C(=O)N[C@@H](CC(C)C)C(=O)N[C@@H](CCC(N)=O)C(=O)N[C@@H](CC(=O)O)C(=O)N[C@H](C(=O)N[C@@H](Cc1cnc[nH]1)C(=O)N[C@@H](CC(N)=O)C(=O)N[C@@H](Cc1ccccc1)C(=O)O)C(C)C)C(C)C [pTH (1-34)],% plaque reduction,HCMV strain AD169,0.0%
same,% inhibition of HBV replication in HEP G2 cells,[1],0.0%
same,% inhibition of migration,[2],−4.0%
same,viability at 144 h,in vitro [3],100%
same,"viability at 144 h, 10 micrograms per ml",[4],100%
same,% of induction,A549 cells [5],1.1%
same,% prevention of ceramide induced apoptosis,A549 cells [6],23.85%
same,% of PHA induced control,[7],110.2%
same,% inhibition of tube formation,HUVEC,28.0%
same,Cell cycle analysis G0/G1,A549 cells [8],59.1
same,Cell cycle analysis G2/M,A549 cells [8],7.5
same,Cell cycle analysis S,A549 cells [8],34.4
same,% inhibition,Streptococcus pneumoniae,0.0%
same,IFNγ spleen cells; TH1 response (% of control),spleen cells,68.6 % of control
same,IL-2 spleen cells (% of control),spleen cells,180.4 % of control
same,IL-4 spleen cells; TH2 response (% of control),spleen cells,135.2 % of control
same,IL-5 spleen cells; TH2 response (% of control),spleen cells,85.9 % of control
same,TNF-a spleen cells; TH1 response (% of control),spleen cells,114.1 % of control
same,% inhibition,MRSA,0.0%
same,% of SAC/IL2 induced control,[9],106.0%
same,% inhibition,Pseudomonas aeruginosa,0.0%
same,% CPE reduction in HIV-1 infected CEM-SS cells,HIV-1IIIB,18.1%
same,% of control phagocytosis,RAW 264.7 cells,102.9%
same,% of LPS induction,[10],117.1%
same,viability at 10 micrograms per ml,in vitro [11],99.4%
